Experimental data published in patent publication US20250302912A1, “COMPOSITION INCLUDING PEPTIDE COMPOUND AND SURFACTANT” (CHUGAI SEIYAKU KABUSHIKI KAISHA, priority 2021, published 2025).
In brackets after ≈: the same amount, converted by molar mass. Bridge positions count the residues as written; N and C are the ends. Square brackets hold non-standard residues; d marks the D form. Peptide text beside a SMILES is read from it. * marks the point of attachment. Ala(4-thiazolyl) = N[C@@H](Cc1cscn1)C(=O)O; NMeNle(6-CHF2) = CN[C@@H](CCCCC(F)F)C(=O)O; Phe(3-Cl) = N[C@@H](Cc1cccc(Cl)c1)C(=O)O; NMehPhe = CN[C@@H](CCc1ccccc1)C(=O)O; NMeF = CN[C@@H](Cc1ccccc1)C(=O)O; NMeD = CN[C@@H](CC(=O)O)C(=O)O; NMeS = CN[C@@H](CO)C(=O)O; Pip = O=C(O)[C@@H]1CCCCN1; Nle = CCCC[C@H](N)C(=O)O; Pyrrolidide = C1CCN(*)C1; dNMeA = CN[C@H](C)C(=O)O; Propyl = CCC*

Tests used:
[1] = Evaluation of Caco-2 membrane permeability; details: human, Caco-2, pH 6.5, Permeability coefficient (Caco-2 Papp), FaSSIF/HBSS buffer pH 6.5 apical
Experimental: Caco-2 cells were cultured on 96-well Transwell for 3 weeks. […] Each well was shaken at 5% CO2, 37° C., 80 rpm, and at 180 minutes after the start, a sample on the Basal side was taken and the permeation amount of the compound was measured by liquid chromatography-mass spectrometry (LC/MS/MS). From the permeation amount, the permeability coefficient (Caco-2 Papp (cm/sec)) was calculated.
As comparative examples, the permeation amount was measured by the same procedure as described above except that a FaSSIF/HBSS buffer (pH 6.5) without 5 mM lauroyl-L-carnitine was used. […] From the measured permeation amount, the permeability coefficient was calculated.

[2] = Evaluation of solubility in 50 mM phosphate buffer (PPB, pH 6.5); type: physicochemical; details: 50 mM phosphate buffer pH 6.5, 37° C., 1 atm, 22 to 24 hours
Experimental: To an excess amount of lyophilized powder of the compound, 50 mM phosphate buffer (PPB: Phosphate buffer, pH 6.5) is added, and after shaking (37° C., 1 atm, 1800 rpm, for 22 to 24 hours), the mixture is filtered with a filter, and the compound concentration of the filtrate is measured by LC/MS/MS. Solubility (μg/mL) is calculated from the measured compound concentration.
Solubility (g/mL) was calculated from the measured compound concentration.

claudin protein = details: Drug Metab. Pharmacokinet., 26 (2): 162170 (2011); cited from earlier work
[3] = Without 5 mM lauroyl-L-carnitine

SMILES	Papp A→B at 180 min ([1]; With 5 mM lauroyl-L-carnitine)	Papp A→B at 180 min [1, 3]	solubility [2]	Effect on expression of claudin protein / tight junction (claudin protein)
CC[C@H](C)[C@@H]1NC(=O)[C@H](CC(C)C)N(C)C(=O)CC(C(=O)N2CCOCC2)N(C)C(=O)[C@H](C2CCCC2)N(C)C(=O)C2(CCCC2)NC(=O)[C@@H]2CCCN2C(=O)[C@H](CCc2ccc(C(F)(F)F)c(Cl)c2)NC(=O)CN(C)C(=O)[C@H](CC2CCCCC2)N(C)C(=O)[C@@H]2CCN2C(=O)[C@H](C)N(C)C1=O (single isomer, unassigned) [Compound 2]	0.265 ×10⁻⁶ cm/s	0.0491 ×10⁻⁶ cm/s		
CC[C@H](C)[C@@H]1NC(=O)[C@H](CC(C)C)N(C)C(=O)CC(C(=O)N2CCCCC2)N(C)C(=O)[C@H](C2CCCC2)N(C)C(=O)C2(CCCC2)NC(=O)[C@@H]2CCCN2C(=O)[C@H](CCc2ccc(C(F)(F)F)c(Cl)c2)NC(=O)CN(C)C(=O)[C@H](CC2CCCCC2)N(C)C(=O)[C@@H]2CCN2C(=O)[C@H](C)N(C)C1=O (single isomer, unassigned) [Compound 8]	0.154 ×10⁻⁶ cm/s	0.042 ×10⁻⁶ cm/s		
CC[C@H](C)[C@@H]1NC(=O)C(CC(C)C)N(C)C(=O)CC(C(=O)N(C)C)N(C)C(=O)[C@H](C2CCCC2)N(C)C(=O)C(C)NC(=O)C(C)N(C)C(=O)[C@H](CCc2ccc(C(F)(F)F)c(Cl)c2)NC(=O)CN(C)C(=O)[C@H](CC2CCCCC2)N(C)C(=O)[C@@H]2CCN2C(=O)[C@H](C)N(C)C1=O (single isomer, unassigned) [Compound 9]	0.0214 ×10⁻⁶ cm/s	0.00949 ×10⁻⁶ cm/s		
CC[C@H](C)[C@@H]1NC(=O)[C@H](Cc2ccccc2)N(C)C(=O)[C@H](Cc2cscn2)NC(=O)[C@@H](C)N(C)C(=O)C[C@@H](C(=O)N2CCCC2)NC(=O)[C@@H]2CCCN2C(=O)[C@H](CCCCC(F)F)N(C)C(=O)CNC(=O)[C@H](Cc2ccccc2)N(C)C(=O)[C@@H]2CCCN2C(=O)[C@H](CCc2ccccc2)N(C)C1=O [Compound 4] ([dNMeA][Ala(4-thiazolyl)][NMeF]I[NMehPhe]P[NMeF]G[NMeNle(6-CHF2)]PD-Pyrrolidide; lactam N-11)	0.012 ×10⁻⁶ cm/s	< 0.0107 ×10⁻⁶ cm/s	103 µg/mL (≈ 71.2 µM)	
CC[C@H](C)[C@@H]1NC(=O)[C@H](Cc2ccccc2)N(C)C(=O)CN(C)C(=O)C[C@@H](C(=O)N2CCCCC2)NC(=O)[C@H](CC(C)C)N(C)C(=O)[C@H](COC(C)(C)C)NC(=O)[C@H](CC(C)C)N(C)C(=O)[C@H](CCc2ccccc2)N(C)C(=O)CN(C)C(=O)[C@H]([C@@H](C)O)NC(=O)[C@H](CC(C)C)N(C)C1=O (stereo in doubt) [Compound 7]	0.526 ×10⁻⁶ cm/s	< 0.0944 ×10⁻⁶ cm/s		
CCCC[C@@H]1NC(=O)[C@@H]2CCCN2C(=O)[C@H](CCCC)NC(=O)[C@@H](C)N(C)C(=O)C[C@@H](C(=O)N2CCCC2)N(C)C(=O)[C@@H]2CCCN2C(=O)[C@H]([C@@H](C)CC)NC(=O)[C@@H]2CCCCN2C(=O)[C@H](Cc2cccc(Cl)c2)NC(=O)[C@H](COCCC)N(C)C(=O)[C@H](Cc2ccccc2)N(C)C1=O [Compound 5] ([dNMeA][Nle]P[Nle][NMeF][NMeS](Propyl)[Phe(3-Cl)][Pip]IP[NMeD]-Pyrrolidide; lactam N-11)	0.0264 ×10⁻⁶ cm/s	0.00372 ×10⁻⁶ cm/s	< 1.09 µg/mL	
CC[C@H](C)[C@@H]1NC(=O)[C@H](CC(C)C)N(C)C(=O)CC(C(=O)N2CCOCC2)N(C)C(=O)[C@H](C2CCCC2)N(C)C(=O)C2(CCCC2)NC(=O)[C@@H]2CCCN2C(=O)[C@H](CCc2ccc(C(F)(F)F)c(Cl)c2)NC(=O)CN(C)C(=O)[C@H](C2CCCC2)N(C)C(=O)[C@@H]2CCN2C(=O)[C@H](C)NC1=O (single isomer, unassigned) [Compound 10]		< 0.00976 ×10⁻⁶ cm/s		
CCCCCCCCCCCC(=O)O[C@H](CC(=O)[O-])C[N+](C)(C)C [lauroyl-L-carnitine]				suppresses the expression of claudin protein and thus expands the tight junction
